# Source: PMC8564858, “Flavonoid-based inhibitors of the Phi-class glutathione transferase from black-grass to combat multiple herbicide resistance” (Organic & Biomolecular Chemistry, 2021)
# Experiments:
# AmGSTF1 [1] = experiment: Isothermal titration calorimetry; assay type: binding, Alopecurus myosuroides
# Procedure: Coot and reciprocal space refinement using Refmac. Further experimental detail is summarised in
# Molecular docking was performed using the GOLD package with CHEMPLP as the target fitness function
# 12. The structure of the AmGSTF1 in the tetragonal unit cell with both loops in their closed conformation
# was used as a starting model for docking. The ligand (GS-NBF) was removed from the binding site. The
# search space was defined by the position of the ligand in the cavity with a margin of 10 and 15 Å,
# respectively. The ligands were built with Avogadro [XX]. In each case, the starting geometry minimized
# using the MMFF94 forcefield [xx]. Each ligand was docked with 30 independent genetic algorithm using
# the diverse solution settings in order to explore a maximum parameter space.
# Isothermal Titration Calorimetry
# AmGSTF1 was dialysed into HEPES buffer (pH 7.6) overnight at 3 °C and the concentration adjusted to
# 10 µM in a volume of 3 mL. The activity of the enzyme was calculated prior to use according to the
# standard CDNB biochemical assay. A solution of the desired ligand (≥ 10 x protein concentration, 200
# µL) was prepared in the same HEPES buffer as above. All samples were degassed for 5 minutes prior to
# use using a thermovac at 24 °C. AmGSTF1 was incubated in the cell and the ligand in the syringe, […]
# experiment run to completion or until no more titrant was available. The data obtained was analysed […]
# wildtype AmGSTF1 = assay type: biochemical, Alopecurus myosuroides; conditions: 100 µM, 60 min at 20 °C, diluted 1:100, activity towards CDNB
# MHR black-grass (Peldon) = experiment: Petri-dish seedling assay with pendimethalin; assay type: in vivo, Alopecurus myosuroides; conditions: Peldon-MHR; 5 ppm pendimethalin alone
# [2] = tested on: HS black-grass (Rothamsted); experiment: Petri-dish seedling assay with pendimethalin; assay type: in vivo, Alopecurus myosuroides; conditions: 5 ppm pendimethalin alone
# AmGSTF1 [3] = experiment: CDNB assay: inhibition of AmGSTF1-catalysed glutathionylation of CDNB; assay type: biochemical, Alopecurus myosuroides; conditions: three replicate measurements
# AmGSTF1 [4] = experiment: Ligand fishing with strep-tagged AmGSTF1 immobilised on StrepTactin column; assay type: binding, Alopecurus myosuroides; conditions: ligand cocktail, each at 100 µM
# wheat = experiment: Preliminary spray trial, companion crop phytotoxicity; assay type: in vivo
# [5] = tested on: MHR in black-grass plants; experiment: Preliminary spray trial with pinoxaden; assay type: in vivo, Alopecurus myosuroides; conditions: black-grass plants exposed to the herbicide pinoxaden
# AmGSTF1 [6] = experiment: Thermal shift assay; assay type: binding, Alopecurus myosuroides; conditions: difference in melting temperature compared to no ligand
# [7] = Aqueous solubility (qualitative); assay type: physicochemical
compound,measurement,setting,value
NC(CCC(=O)NC(CSc1ccc([N+](=O)[O-])c2nonc12)C(=O)NCC(=O)O)C(=O)O (stereo not drawn) [NBD-SG],Binding to AmGSTF1 by ITC,AmGSTF1 [1],binding to AmGSTF1 confirmed
same,Inhibition vs. DMSO control,wildtype AmGSTF1,43%
same,Mean specific activity,"wildtype AmGSTF1; mean ± SD, n = 3",11.2 ± 1.1 nmol s-1 mg-1 protein
"CCC(CC)Nc1c([N+](=O)[O-])cc(C)c(C)c1[N+](=O)[O-] [Pendimethalin, pendimethalin, reference compound]",Percentage of normal shoot 14 d after treatment,MHR black-grass (Peldon),82%
same,Percentage of normal shoot 14 d after treatment,[2],52%
"O=c1cc(-c2ccc(O)cc2)oc2cc(O)cc(O)c12 [compound 1, apigenin]",CDNB Assay % Inhibition,AmGSTF1 [3]; 10 µM compound,71%
same,CDNB Assay % Inhibition,AmGSTF1 [3]; 100 µM compound,87%
same,Binding/retention by immobilised AmGSTF1,AmGSTF1 [4],selectively retained and bound
same,Phytotoxic effect in companion crop,wheat,no adverse phytotoxic effect
same,Synergistic effect counteracting MHR,[5],clear synergistic effect
"O=c1cc(-c2ccccc2)oc2cc(O)cc(O)c12 [compound 2, 5,7-dihydroxyflavone, reference compound]",CDNB Assay % Inhibition,AmGSTF1 [3]; 10 µM compound,47%
same,CDNB Assay % Inhibition,AmGSTF1 [3]; 100 µM compound,96%
same,Thermal Shift Assay ∆Tm,AmGSTF1 [6]; 1 µM,0.1
same,Thermal Shift Assay ∆Tm,AmGSTF1 [6]; 10 µM,0.1
same,Thermal Shift Assay ∆Tm,AmGSTF1 [6]; 100 µM,0.2
"O=c1c(O)c(-c2ccc(O)c(O)c2)oc2cc(O)cc(O)c12 [compound 3, quercetin, reference compound]",CDNB Assay % Inhibition,AmGSTF1 [3]; 10 µM compound,44%
same,CDNB Assay % Inhibition,AmGSTF1 [3]; 100 µM compound,94%
same,Solubility in aqueous solutions (in words),[7],high solubility
"O=c1cc(-c2ccccc2)oc2ccc(O)cc12 [compound 4, reference compound]",CDNB Assay % Inhibition,AmGSTF1 [3]; 100 µM compound,61%
same,Thermal Shift Assay ∆Tm,AmGSTF1 [6]; 1 µM,0.4
same,Thermal Shift Assay ∆Tm,AmGSTF1 [6]; 10 µM,0.0
same,Thermal Shift Assay ∆Tm,AmGSTF1 [6]; 100 µM,-0.2
"O=c1cc(-c2ccccc2)oc2ccccc12 [compound 7, reference compound]",CDNB Assay % Inhibition,AmGSTF1 [3]; 100 µM compound,14%
same,Thermal Shift Assay ∆Tm,AmGSTF1 [6]; 1 µM,0.3
same,Thermal Shift Assay ∆Tm,AmGSTF1 [6]; 10 µM,0.0
same,Thermal Shift Assay ∆Tm,AmGSTF1 [6]; 100 µM,-0.2
COc1cc(OC)c2c(=O)cc(-c3nnc(C)o3)oc2c1 [compound 19],CDNB Assay % Inhibition,AmGSTF1 [3]; 10 µM compound,8%
same,CDNB Assay % Inhibition,AmGSTF1 [3]; 100 µM compound,53%
same,Thermal Shift Assay ∆Tm,AmGSTF1 [6]; 1 µM,-0.10
same,Thermal Shift Assay ∆Tm,AmGSTF1 [6]; 10 µM,-0.17
same,Thermal Shift Assay ∆Tm,AmGSTF1 [6]; 100 µM,-0.27
COc1cc(OC)c2c(=O)cc(-c3ncco3)oc2c1 [compound 20],CDNB Assay % Inhibition,AmGSTF1 [3]; 10 µM compound,11%
same,CDNB Assay % Inhibition,AmGSTF1 [3]; 100 µM compound,64%
same,Thermal Shift Assay ∆Tm,AmGSTF1 [6]; 1 µM,-0.10
same,Thermal Shift Assay ∆Tm,AmGSTF1 [6]; 10 µM,-0.17
same,Thermal Shift Assay ∆Tm,AmGSTF1 [6]; 100 µM,-0.23
COc1cc(OC)c2c(=O)cc(-c3nnn[nH]3)oc2c1 [compound 22],CDNB Assay % Inhibition,AmGSTF1 [3]; 10 µM compound,13%
same,CDNB Assay % Inhibition,AmGSTF1 [3]; 100 µM compound,53%
same,Thermal Shift Assay ∆Tm,AmGSTF1 [6]; 1 µM,-0.23
same,Thermal Shift Assay ∆Tm,AmGSTF1 [6]; 10 µM,-0.27
same,Thermal Shift Assay ∆Tm,AmGSTF1 [6]; 100 µM,-0.43
COc1cc(OC)c2c(=O)cc(-c3nccs3)oc2c1 [compound 23],CDNB Assay % Inhibition,AmGSTF1 [3]; 10 µM compound,23%
same,CDNB Assay % Inhibition,AmGSTF1 [3]; 100 µM compound,83%
same,Thermal Shift Assay ∆Tm,AmGSTF1 [6]; 1 µM,-0.40
same,Thermal Shift Assay ∆Tm,AmGSTF1 [6]; 10 µM,-0.47
same,Thermal Shift Assay ∆Tm,AmGSTF1 [6]; 100 µM,-0.50
same,Solubility in aqueous solutions (in words),[7],increased solubility
COc1cc(OC)c2c(=O)cc(-c3ccn[nH]3)oc2c1 [compound 24],CDNB Assay % Inhibition,AmGSTF1 [3]; 10 µM compound,6%
same,CDNB Assay % Inhibition,AmGSTF1 [3]; 100 µM compound,59%
same,Thermal Shift Assay ∆Tm,AmGSTF1 [6]; 1 µM,-0.30
same,Thermal Shift Assay ∆Tm,AmGSTF1 [6]; 10 µM,-0.07
same,Thermal Shift Assay ∆Tm,AmGSTF1 [6]; 100 µM,-0.03
COc1cc(OC)c2c(=O)cc(-c3ccnn3C)oc2c1 [compound 25],CDNB Assay % Inhibition,AmGSTF1 [3]; 10 µM compound,9%
same,CDNB Assay % Inhibition,AmGSTF1 [3]; 100 µM compound,58%
same,Thermal Shift Assay ∆Tm,AmGSTF1 [6]; 1 µM,0
same,Thermal Shift Assay ∆Tm,AmGSTF1 [6]; 10 µM,-0.03
same,Thermal Shift Assay ∆Tm,AmGSTF1 [6]; 100 µM,-0.10
COc1cc(OC)c2c(=O)cc(-c3ccn(C)n3)oc2c1 [compound 26],CDNB Assay % Inhibition,AmGSTF1 [3]; 10 µM compound,19%
same,CDNB Assay % Inhibition,AmGSTF1 [3]; 100 µM compound,64%
same,Thermal Shift Assay ∆Tm,AmGSTF1 [6]; 1 µM,0
same,Thermal Shift Assay ∆Tm,AmGSTF1 [6]; 10 µM,-0.03
same,Thermal Shift Assay ∆Tm,AmGSTF1 [6]; 100 µM,-0.17
COc1cc(OC(C)C(=O)O)c2c(=O)cc(-c3ccccc3)oc2c1 (stereo not drawn) [compound 41],CDNB Assay % Inhibition,AmGSTF1 [3]; 10 µM compound,14%
same,Thermal Shift Assay ∆Tm,AmGSTF1 [6]; 1 µM,0.20
same,Thermal Shift Assay ∆Tm,AmGSTF1 [6]; 10 µM,0.20
same,Thermal Shift Assay ∆Tm,AmGSTF1 [6]; 100 µM,1.10
CCCCCC(Oc1cc(OC)cc2oc(-c3ccccc3)cc(=O)c12)C(=O)O (stereo not drawn) [compound 42],CDNB Assay % Inhibition,AmGSTF1 [3]; 1 µM compound,4%
same,CDNB Assay % Inhibition,AmGSTF1 [3]; 10 µM compound,69%
same,Thermal Shift Assay ∆Tm,AmGSTF1 [6]; 1 µM,0.17
same,Thermal Shift Assay ∆Tm,AmGSTF1 [6]; 10 µM,0.43
same,Thermal Shift Assay ∆Tm,AmGSTF1 [6]; 100 µM,2.33
CCCCCCCC(Oc1cc(OC)cc2oc(-c3ccccc3)cc(=O)c12)C(=O)O (stereo not drawn) [compound 43],CDNB Assay % Inhibition,AmGSTF1 [3]; 1 µM compound,40%
same,CDNB Assay % Inhibition,AmGSTF1 [3]; 10 µM compound,86%
same,Thermal Shift Assay ∆Tm,AmGSTF1 [6]; 1 µM,0.27
same,Thermal Shift Assay ∆Tm,AmGSTF1 [6]; 10 µM,0.70
same,Thermal Shift Assay ∆Tm,AmGSTF1 [6]; 100 µM,2.93
CCCCCCCCCC(Oc1cc(OC)cc2oc(-c3ccccc3)cc(=O)c12)C(=O)O (stereo not drawn) [compound 44],CDNB Assay % Inhibition,AmGSTF1 [3]; 1 µM compound,58%
same,CDNB Assay % Inhibition,AmGSTF1 [3]; 10 µM compound,97%
same,Thermal Shift Assay ∆Tm,AmGSTF1 [6]; 1 µM,0.40
same,Thermal Shift Assay ∆Tm,AmGSTF1 [6]; 10 µM,0.70
same,Thermal Shift Assay ∆Tm,AmGSTF1 [6]; 100 µM,0.90
CCCCCCCCCCC(Oc1cc(OC)cc2oc(-c3ccccc3)cc(=O)c12)C(=O)O (stereo not drawn) [compound 45],CDNB Assay % Inhibition,AmGSTF1 [3]; 1 µM compound,71%
same,CDNB Assay % Inhibition,AmGSTF1 [3]; 10 µM compound,99%
same,CDNB Assay % Inhibition,AmGSTF1 [3]; 100 µM compound,100%
same,Thermal Shift Assay ∆Tm,AmGSTF1 [6]; 1 µM,0.30
same,Thermal Shift Assay ∆Tm,AmGSTF1 [6]; 10 µM,0.23
same,Thermal Shift Assay ∆Tm,AmGSTF1 [6]; 100 µM,1.17
CCCCCCCCCCCCC(Oc1cc(OC)cc2oc(-c3ccccc3)cc(=O)c12)C(=O)O (stereo not drawn) [compound 46],CDNB Assay % Inhibition,AmGSTF1 [3]; 1 µM compound,75%
same,CDNB Assay % Inhibition,AmGSTF1 [3]; 10 µM compound,90%
same,CDNB Assay % Inhibition,AmGSTF1 [3]; 100 µM compound,100%
same,Thermal Shift Assay ∆Tm,AmGSTF1 [6]; 1 µM,0.20
same,Thermal Shift Assay ∆Tm,AmGSTF1 [6]; 10 µM,0.73
same,Thermal Shift Assay ∆Tm,AmGSTF1 [6]; 100 µM,1.43
Br.COC(=O)C(CCCCN)Oc1cc(OC)cc2oc(-c3ccccc3)cc(=O)c12 (stereo not drawn) [compound 51],CDNB Assay % Inhibition,AmGSTF1 [3]; 10 µM compound,25%
same,Thermal Shift Assay ∆Tm,AmGSTF1 [6]; 1 µM,0.20
same,Thermal Shift Assay ∆Tm,AmGSTF1 [6]; 10 µM,0.43
same,Thermal Shift Assay ∆Tm,AmGSTF1 [6]; 100 µM,0.57
CCCCC(=O)NCCCCC(Oc1cc(OC)cc2oc(-c3ccccc3)cc(=O)c12)C(=O)O (stereo not drawn) [compound 52],CDNB Assay % Inhibition,AmGSTF1 [3]; 1 µM compound,6%
same,CDNB Assay % Inhibition,AmGSTF1 [3]; 10 µM compound,39%
same,Thermal Shift Assay ∆Tm,AmGSTF1 [6]; 1 µM,0.13
same,Thermal Shift Assay ∆Tm,AmGSTF1 [6]; 10 µM,0.30
same,Thermal Shift Assay ∆Tm,AmGSTF1 [6]; 100 µM,1.10
